In patent publication US9145376B2, “Quinazolinone inhibitors of dynein” (The Rockefeller University, priority 2011, dated 2015):

Assays:
Assay type in all cases: cell-based
[1] = test system: primary cilia of Shh-EGFP cells; assay: Quantitative assessment of ciliogenesis (Arl13b staining, cilia size); conditions: 24 hours
[2] = test system: mitotic spindle of Shh-EGFP (NIH-3T3) cells (cytoplasmic dynein 1); assay: Imaging of mitotic spindle assembly; conditions: 50 μM, 60 minutes, MG132-arrested cells
Text: In addition to trafficking macromolecules out of the primary cilium, cytoplasmic dynein complexes have other cellular functions. For example, cytoplasmic dynein 1 acts in concert with dynactin and the nuclear protein NuMA to crosslink and focus the minus ends of microtubules within the mitotic spindle. These actions create the canonical fusiform shape and localize γ-tubulin-containing, microtubule-nucleating complexes to the spindle poles. Cytoplasmic dynein 1 inhibition by blocking antibodies or dominant negative constructs disrupts mitotic spindle assembly, resulting in splayed microtubule ends and reduced γ-tubulin recruitment. To determine whether ciliobrevins can recapitulate these phenotypes, we treated a metaphase-enriched population of NIH-3T3 cells with 50 μM of either example 31 or […] for one hour and examined their mitotic structures by confocal immunofluorescence microscopy.
Shh-EGFP cells were cultured until they achieved approximately 70% confluency and then split 1:5 into 24-well plates containing, poly-D-lysine-coated 12-mm glass coverslips in DMEM containing 10% calf serum, 100 U/mL penicillin, and 0.1 mg/mL streptomycin. […]

[3] = test system: ciliary IFT88 in Shh-EGFP cells (cytoplasmic dynein 2-dependent retrograde transport); assay: Quantitative assessment of IFT88 trafficking; conditions: 50 μM, one hour, compared to DMSO or compound 16
Text: As a microtubule-based compartment, the cilium utilizes specific motor proteins to move macromolecules along its axoneme. Intraflagellar transport (IFT) of cargo can be resolved into anterograde trafficking, which requires the plus end-directed kinesin-2 motor and the IFTB multisubunit complex, and retrograde trafficking, which utilizes the minus end-directed cytoplasmic dynein 2 motor and the IFTA complex. The genetic disruption of individual kinesin-2, cytoplasmic dynein 2, or IFT complex subunits has been previously found to induce ciliary defects and perturb Hh signaling. […] To confirm that ciliobrevins target cilia trafficking in general rather than a Hh pathway-specific process, we examined the effect of ciliobrevins on the subcellular localization of IFTB component IFT88, which requires cytoplasmic dynein 2-dependent retrograde transport for its return to the ciliary basal body.
Shh-EGFP cells were seeded into 24-well plates containing poly-D-lysine-coated 12-mm glass coverslips at a density of 30,000 cells/well and cultured for 24 hours in DMEM containing 10% calf serum, 100 U/mL penicillin, and 0.1 mg/mL streptomycin. […] Ciliary IFT levels were quantified essentially as described for Gli2 though no background was subtracted. At least 25 cilia were analyzed to determine the average ciliary IFT88 level for each experimental condition.

N#C/C(C(=O)c1ccc(Cl)cc1Cl)=C1\NC(=O)c2ccccc2N1 [Example 1, 3-(2,4-dichlorophenyl)-3-oxo-2-(4-oxo-3,4-dihydroquinazolin-2(1H)-ylidene)propanenitrile]
cilia size in response to increasing concentration (FIG. 1) [1]: dose-dependent decrease in cilia size

N#C/C(C(=O)c1ccccc1)=C1\NC(=O)c2ccccc2N1 [Example 16, 3-oxo-2-(4-oxo-3,4-dihydroquinazolin-2(1H)-ylidene)-3-phenylpropanenitrile]
mitotic spindle morphology (γ-tubulin-positive pole focusing) [2]: normal spindle morphologies | cilia size in response to increasing concentration (FIG. 1) [1]: no decrease in cilia size

N#C/C(C(=O)c1ccc(Cl)cc1Cl)=C1\NC(=O)c2ccc(Cl)cc2N1 [Example 31, 2-(7-chloro-4-oxo-3,4-dihydroquinazolin-2(1H)-ylidene)-3-(2,4-dichlorophenyl)-3-oxo-propanenitrile]
IFT88 levels at the distal tip of primary cilia [3]: significant increase | mitotic spindle morphology (γ-tubulin-positive pole focusing) [2]: failed to achieve mitotic spindles with focused γ-tubulin-positive poles
